Test results from patent US20250270394A1, “CYCLODEXTRIN INCORPORATED SILICONE MATERIALS AND THEIR USE AS CARRIERS FOR ACTIVES” (WACKER CHEMIE AG, priority 2022, published 2025).
Where two headings read alike, the source gives them in different places.

Key:
[1] = Homogeneity of cured silicone elastomer incorporating the cyclodextrin; type: physicochemical; settings: hydrosilylation-cured PDMS elastomer, procedure analogous to CH95-70
From the text: 0.802 g (0.304 mmol) CH70, dimethylvinylsilyl-β-cyclodextrin, and 52.0 g of a silicon hydride terminated polydimethylsiloxane fluid with a viscosity of approx. 1000 mPa·s, are placed in a suitable plastic cup with a lid along with a magnetic stir bar. The cup is blanketed with nitrogen gas and then closed to maintain an inert atmosphere while stirring. The materials are stirred until the cyclodextrin is fully dissolved. To this solution, 22.9 g of a vinyl terminated polydimethylsiloxane fluid with a viscosity of approx. 100,000 mPa·s, are added and the contents of the plastic cup are hand-mixed with a stirring rod. 0.0757 g of a platinum catalyst solution, divinyl tetramethyl disiloxane platinum complex diluted in vinyl terminated polysiloxane (1% w/w Pt content), are added to the mixture and hand-mixed, followed by further mixing in a FlackTek, Inc. Speedmixer™, model DAC 1100.2 VAC, at 1250 rpm for 1 minute under vacuum (95 mbar pressure, to degas the mixture).
The composition is then placed into a “plate and frame” mold lined with a suitable release liner. The composition and mold are put into an oven preheated at 80° C. for 1 h to cure into a rubber slab produced are approximately 6 in X 6 in X 0.072 in. The cured elastomer specimen is clear and colorless. […]

[2] = Solubility of silylated cyclodextrins in silicone fluid BELSIL DM 5
Procedure: Such a homogneous mixture can also be formed by using a magnetic stirrer, overhead stirrer, Speedmixer™ or similar mixing techniques.
Above experiment was repeated with a native γ-CD CAVAMAX® W8, which was not modified with silylation.
Silylated β-cyclodextrin CH77 with low number of silyl groups (7.95 TMS and 3.23 VDMS groups on average) was evaluated to check the solubility in DM 5 at 10 wt. %.

[3] = Release of geraniol from cured elastomer, weight loss in oven at 60° C.; type: physicochemical
Procedure: A cured elastomer/CD/geraniol sample (VP141-2-1) containing 10:1 mole ratio of geraniol to CD was prepared by using the following procedure: Trimethylsilyl-β-cyclodextrin CH62 (1.41 g, 0.59 mmol) and geraniol (0.90 g, 5.9 mmol) were added to a plastic cup and mixed using a Speedmixer™ for 2 min at 2000 rpm (mixing was repeated 2-3 times). The mixture appeared almost homogeneous. SiH terminated linear silicone of approximate formula MHD220MH and approximate viscosity 1000 mPa·s (13.95 g), SiH terminated and pendant SiH containing silicone of approximate formula MHD95.5DH9.6MH and having an approximate viscosity of 165 mPa·s (0.71 g), vinyl terminated linear silicone of approximate viscosity 1000 mPa·s (22.31 g) and platinum catalyst solution (0.078 g) were added to the cup and mixed using Speedmixer™ for 2 min at 2000 rpm (x 3-4 times). The resulted clear and colorless mixture was left in the tightly closed cup for 24-36 h to cure at room temperature to get a cured elastomer sample.
Then, vinyl terminated linear silicone of approximate viscosity 1000 mPa·s(23.09 g) and platinum catalyst solution (0.075 g) were added to the cup and mixed using Speedmixer™ for 2 min at 2000 rpm (mixing was repeated 2-3 times). The resultant clear, colorless mixture was left in the tightly closed cup for 24-36 h to cure at room temperature to get a cured elastomer sample. […]

[4] = Thermogravimetric analysis (TGA) of evaporation of active, pure versus silyl-CD complex; type: physicochemical
From the text: Complex formation provides advantage for practical use of these guest molecules, many of which are pharmaceutical or cosmetic actives. For example, complexation slows down the evaporation of actives making the actives last longer. This is confirmed by Thermogravimetric analysis (TGA). Thermogravimetric analysis results for pure geraniol and its 1:1 complex with trimethylsilyl-β-cyclodextrin CH62 are shown in FIG. 4.
The complex with TMS-β-CD CH62 contains approximately 6 wt. % Geraniol. […] Thus, complexation with silyl-CD slows down loss of geraniol.
In FIG. 5 TGA thermograms show similar observations for complexation between a silyl-CD MG 15 and alpha-pinene 1:1 compared with pure alpha-pinene.
Pure pinene completely evaporates by 140° C., but it takes up to approximately 200° C. for the pinene to completely evaporate from the complex.

Compound | appearance of cured elastomer sample [1] | temperature at which evaporation (weight loss) starts [4] | temperature at which evaporation is complete [4] | also measured
OC[C@H]1O[C@@H]2O[C@H]3[C@H](O)[C@@H](O)[C@@H](O[C@H]4[C@H](O)[C@@H](O)[C@@H](O[C@H]5[C@H](O)[C@@H](O)[C@@H](O[C@H]6[C@H](O)[C@@H](O)[C@@H](O[C@H]7[C@H](O)[C@@H](O)[C@@H](O[C@H]8[C@H](O)[C@@H](O)[C@@H](O[C@H]1[C@H](O)[C@H]2O)O[C@@H]8CO)O[C@@H]7CO)O[C@@H]6CO)O[C@@H]5CO)O[C@@H]4CO)O[C@@H]3CO [CAVAMAX® W7, β-cyclodextrin] | heterogeneous, opaque, with large domain separations | – | – | –
OC[C@H]1O[C@@H]2O[C@H]3[C@H](O)[C@@H](O)[C@@H](O[C@H]4[C@H](O)[C@@H](O)[C@@H](O[C@H]5[C@H](O)[C@@H](O)[C@@H](O[C@H]6[C@H](O)[C@@H](O)[C@@H](O[C@H]7[C@H](O)[C@@H](O)[C@@H](O[C@H]8[C@H](O)[C@@H](O)[C@@H](O[C@H]9[C@H](O)[C@@H](O)[C@@H](O[C@H]1[C@H](O)[C@H]2O)O[C@@H]9CO)O[C@@H]8CO)O[C@@H]7CO)O[C@@H]6CO)O[C@@H]5CO)O[C@@H]4CO)O[C@@H]3CO [CAVAMAX® W8, γ-cyclodextrin] | – | – | – | solubility in DM 5 (appearance of mixture) [2]: heterogeneous and opaque, with gross phase separation
CC(C)=CCC/C(C)=C/CO [Geraniol, geraniol] | – | approximately 75 °C | approximately 225 °C | time to complete release of geraniol [3]: a few hours
COC[C@H]1O[C@@H]2O[C@H]3[C@H](OC)[C@@H](OC)[C@@H](O[C@H]4[C@H](OC)[C@@H](OC)[C@@H](O[C@H]5[C@H](OC)[C@@H](OC)[C@@H](O[C@H]6[C@H](OC)[C@@H](OC)[C@@H](O[C@H]7[C@H](OC)[C@@H](OC)[C@@H](O[C@H]8[C@H](OC)[C@@H](OC)[C@@H](O[C@H]1[C@H](OC)[C@H]2OC)O[C@@H]8COC)O[C@@H]7COC)O[C@@H]6COC)O[C@@H]5COC)O[C@@H]4COC)O[C@@H]3COC [permethylated β-cyclodextrin] | heterogeneous, opaque, with large domain separations | – | – | solubility in DM 5 (appearance of mixture) ([2]; 10 wt. % mixture in BELSIL DM 5 (polydimethylsiloxane, 5 mPa·s), vortex mixer): heterogeneous and opaque
CC1=CCC2CC1C2(C)C (stereo not drawn) [pinene, alpha-pinene] | – | < 30 °C | ≤ 140 °C | –
